In US10167299B2, “1-(3-aminopropyl) substituted cyclic amine compounds, preparation method therefor, and pharmaceutical compositions and uses thereof” (SHANGHAI INSTITUTE OF MATERIA MEDICA, CHINESE ACADEMY OF …, priority 2013, dated 2019):
pIC50: −log10 of the molar value. Values after ≈ are worked out from the molar mass of the structure shown. Read-outs that look alike come from different tables or passages of the source.

How the values were obtained:
[1] = test system: Salmonella typhimurium strain TA98; assay: Bacterial reverse mutation assay TA98 (-S9); assay type: cell-based; details: TA98, -S9, positive control 20 μg/dish
Protocol: (§1) The mutagenic effects of compounds 18 and 22 of the present invention on Salmonella typhimurium strains TA98 and TA100 in non-metabolic activation (-S9) condition were determined. Two strains, TA98 and TA100 were chosen in bacterial reverse mutation assay for compounds 18 and 22. 9 doses containing […], negative and positive controls were set in experiments. 3 dishes were used for each dose. The experiment was carried out under -S9 condition.

CCR5 = CCR5 (Homo sapiens (Human), UniProt P51681); assay: Calcium flux inhibition experiment; assay type: cell-based; details: for pIC50: HEK293/CCR5-Gα16 cell line, calcium flux, read-out: CCR5 IC50; for calcium influx inhibition effect in words, versus positive control compounds: conclusion from Table 1
CCR5 protein = assay: Thermal stability of protein test (CPM-assay); assay type: binding; details: for Tm (° C.): thermal stability of CCR5 protein with compound, CPM dye
Text: Experimental theory: many cysteines are present in CCR5 protein sequence. Cysteines located in loop region form disulfide bonds to stabilize the tertiary structure of the protein. Some free cysteines in reduced state are located in the transmembrane region. Under excitation by incident light of 387 nm, the combination of free sulfhydryl and fluorescent dye CPM can emit excitation light of 436 nm. […] The free sulfhydryls originally located in the transmembrane region expose and combine with the fluorescent dye. And then the detector will detect changes in signal enhancement. Therefore, the thermal stability of membrane proteins can be determined according to the temperature (Tm) at the midpoint of changes in signal intensity.
Experimental steps: Upon preliminary purification, the obtained protein solution was transferred into a small concentration tube (100 kd, 500 ul) for concentration (1000 rcf, 12 min, 4° C.). After centrifugation, the concentration tube was taken out and flicked to prevent protein coagulation due to high local concentration. The final concentrated volume was about 50 μl. 117 μl of purified solution (volume is suitable to make the total volume up to 120 μl), 1 μl fluorescent dye cpm (in-house prepared) and 2 μl of concentrated protein solution (the amount of added protein is 3-5 μg according to the calculated concentration of the protein solution and the concentrated volume) were added to 2 ml Ependorf tube and incubated at room temperature for 20 min. And then the mixture was added to the cuvette (Qwan) and put in the testing equipment Cary, wherein the surface of the frosted glass faced out. The temperature was set in the range of 4-90° C. with 1° C. increase per minute and the program was run. Tm value can be obtained by processing the data and graph with a mapping software and can be used to compare the difference of protein thermal stability under different conditions.

[2] = Cytotoxicity (CC50) in TZM-bl cells; assay type: cell-based; details: human
hERG = hERG (Homo sapiens (Human), UniProt Q12809)
Protocol: CHO-hERG cells which have been incubated overnight were added with sample buffer and incubated for 90 minutes at room temperature in darkness.
The sample buffer was removed and assay buffer was added.
The compound is added to the cell plate and incubated for 20 minutes in darkness.
Cell plate was placed into FDSS. The fluorescence signal was recorded every second for 10 seconds. Exciting buffer was added to the cells at the 10th second and the fluorescence signal was recorded every second for 180 seconds

HIV-1SF162 virus strain = assay: Inhibition activity on TZM-bl cells infected with HIV-1SF162; details: for EC50: Human immunodeficiency virus 1, TZM-bl; for therapeutic index (TI): TZM-bl cells infected with HIV-1SF162
[3] = test system: Salmonella typhimurium strain TA100; assay: Bacterial reverse mutation assay TA100 (-S9); assay type: cell-based; details: TA100, -S9, positive control 1300 μg/dish
Protocol: as §1

[4] = TZM-bl cells (Table 3), read-out: CC50

CCR5, sequence (P51681 whole entry): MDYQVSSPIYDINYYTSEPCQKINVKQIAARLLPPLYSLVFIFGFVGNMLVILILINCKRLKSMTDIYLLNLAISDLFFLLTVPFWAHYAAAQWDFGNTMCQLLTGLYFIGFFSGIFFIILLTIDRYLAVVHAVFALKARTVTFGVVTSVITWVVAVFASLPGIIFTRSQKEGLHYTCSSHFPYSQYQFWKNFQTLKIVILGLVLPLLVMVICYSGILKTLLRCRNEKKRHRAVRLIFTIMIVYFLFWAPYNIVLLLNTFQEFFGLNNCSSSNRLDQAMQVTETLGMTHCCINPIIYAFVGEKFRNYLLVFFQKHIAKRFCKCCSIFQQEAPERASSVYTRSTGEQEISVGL
hERG, sequence (Q12809 whole entry): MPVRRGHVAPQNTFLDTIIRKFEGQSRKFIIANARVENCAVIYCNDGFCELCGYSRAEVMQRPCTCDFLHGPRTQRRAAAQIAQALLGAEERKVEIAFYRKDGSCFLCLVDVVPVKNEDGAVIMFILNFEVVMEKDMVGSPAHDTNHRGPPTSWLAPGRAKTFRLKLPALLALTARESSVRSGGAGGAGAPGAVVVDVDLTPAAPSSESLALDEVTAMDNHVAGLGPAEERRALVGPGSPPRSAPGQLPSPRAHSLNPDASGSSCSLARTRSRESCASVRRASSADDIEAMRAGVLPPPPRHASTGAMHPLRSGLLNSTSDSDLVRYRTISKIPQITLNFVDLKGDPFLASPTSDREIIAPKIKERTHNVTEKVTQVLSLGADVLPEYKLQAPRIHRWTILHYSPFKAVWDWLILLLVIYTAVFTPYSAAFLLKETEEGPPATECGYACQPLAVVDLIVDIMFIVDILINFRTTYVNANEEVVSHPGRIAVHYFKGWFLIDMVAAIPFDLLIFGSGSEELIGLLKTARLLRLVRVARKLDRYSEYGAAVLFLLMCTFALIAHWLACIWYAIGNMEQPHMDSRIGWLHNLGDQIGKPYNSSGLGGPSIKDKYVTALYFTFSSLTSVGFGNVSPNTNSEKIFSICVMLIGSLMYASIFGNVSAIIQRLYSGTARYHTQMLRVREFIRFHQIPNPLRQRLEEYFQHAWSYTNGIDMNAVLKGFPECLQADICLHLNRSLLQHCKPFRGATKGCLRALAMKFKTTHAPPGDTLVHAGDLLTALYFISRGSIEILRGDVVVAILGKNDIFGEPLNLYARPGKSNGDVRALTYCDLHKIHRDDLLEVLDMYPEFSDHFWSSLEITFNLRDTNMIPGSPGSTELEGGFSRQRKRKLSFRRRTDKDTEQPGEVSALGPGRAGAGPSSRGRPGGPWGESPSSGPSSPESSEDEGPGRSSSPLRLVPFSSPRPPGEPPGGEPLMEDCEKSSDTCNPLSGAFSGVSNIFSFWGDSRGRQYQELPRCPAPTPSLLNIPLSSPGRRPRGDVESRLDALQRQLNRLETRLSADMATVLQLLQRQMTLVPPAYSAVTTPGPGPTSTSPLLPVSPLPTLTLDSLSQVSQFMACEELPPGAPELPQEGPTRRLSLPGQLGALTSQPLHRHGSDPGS

| SMILES | pIC50 (CCR5) | Tm (° C.) (CCR5 protein) [°C] | EC50 (HIV-1SF162 virus strain) [µg/mL] | therapeutic index (TI) (HIV-1SF162 virus strain) | calcium influx inhibition effect in words, versus positive control compounds (CCR5) | CC50 [2, 4] [µg/mL] | also measured |
| --- | --- | --- | --- | --- | --- | --- | --- |
| O=[N+]([O-])c1ccc2c(c1)Cc1ccccc1-2 [2-Nitroflucrene, reference compound] | – | – | – | – | – | – | number of revertant colonies (Mean ± SD) [1]: 999 ± 145.2 |
| Cc1nnc(C(C)C)n1C1CC2CCC(C1)N2CC[C@H](NC(=O)C1CCCCC1)c1cccnc1 (stereo partly drawn) [Compound 8, N-[(1S)-3-[exo-3-(3-isopropyl-5-methyl-4H-1,2,4-triazol-4-yl)-8-azabicyclo[3.2.1]octane-8-yl]-1-(pyridin-3-yl)propyl]cyclohexane-1-carboxamide] | 7.66 | 60.61 | 2.69 (≈ 5.62 µM) | >37.17 | – | – | CC50 [2]: > 100 µg/mL; hERG inhibition activity in words, versus positive control compounds (hERG): better that those of positive control compounds |
| CC(=O)N[C@@H](CCN1C2CCC1CC(n1c(C)nnc1C(C)C)C2)c1cccs1 (stereo partly drawn) [Compound 12, N-[(1S)-3-[exo-3-(3-isopropyl-5-methyl-4H-1,2,4-triazol-4-yl)-8-azabicyclo[3.2.1]octane-8-yl]-1-(thiophen-2-yl)propyl]acetamide] | – | – | – | – | – | – | hERG inhibition activity in words, versus positive control compounds (hERG): better that those of positive control compounds |
| Cc1nnc(C(C)C)n1C1CCN(CC[C@H](NC(=O)C2CCC(F)(F)CC2)c2cccs2)CC1 [Compound 13, 4,4-difluoro-N-[(1S)-3-[4-(3-isopropyl-5-methyl-4H-1,2,4-triazol-4-yl)-piperidin-1-yl]-1-(thiophen-2-yl)propyl]cyclohexane-1-carboxamide] | 8.47 | 65.32 | 0.183 (≈ 0.371 µM) | >1093.14 | better than the positive control compounds | > 100 | – |
| Cc1nnc(C(C)C)n1C1CCN(CC[C@H](NC(=O)C2CCCCC2)c2cccs2)CC1 [Compound 15, N-[(1S)-3-[4-(3-isopropyl-5-methyl-4H-1,2,4-triazol-4-yl)-piperidin-1-yl]-1-(thiophen-2-yl)propyl]cyclohexane-1-carboxamide] | 8.04 | 64.30 | 0.316 (≈ 0.69 µM) | >632.87 | comparable to the positive control compounds | > 200 | – |
| CCC1CCC(C(=O)N[C@@H](CCN2C3CCC2CC(n2c(C)nnc2C(C)C)C3)c2cccs2)CC1 (stereo partly drawn) [Compound 19] | 7.67 | 69.20 | 0.00959 (≈ 0.0187 µM) | 8940.56 | – | – | CC50 [2]: 85.7 µg/mL (≈ 168 µM) |
| Cc1nnc(C(C)C)n1C1CCN(CC[C@H](NC(=O)C2CCC(F)(F)CC2)c2ccsc2)CC1 [Compound 21, 4,4-difluoro-N-[(1S)-3-[4-(3-isopropyl-5-methyl-4H-1,2,4-triazol-4-yl)-piperidin-1-yl]-1-(thiophen-3-yl)propyl]cyclohexane-1-carboxamide] | 7.92 | 64.68 | 0.15 (≈ 0.304 µM) | >1333.96 | comparable to the positive control compounds | > 200 | – |
| Cc1nnc(C(C)C)n1C1CCN(CC[C@H](NC(=O)C2CCCCC2)c2ccsc2)CC1 [Compound 23, N-[(1S)-3-[4-(3-isopropyl-5-methyl-4H-1,2,4-triazol-4-yl)-piperidin-1-yl]-1-(thiophen-3-yl)propyl]cyclohexane-1-carboxamide] | 7.56 | 63.90 | 0.06 (≈ 0.131 µM) | >3332.78 | – | > 200 | – |
| Cc1nnc(C(C)C)n1C1CCN(CC[C@H](NC(=O)C2CCCC2)c2ccsc2)CC1 [Compound 25, N-[(1S)-3-[4-(3-isopropyl-5-methyl-4H-1,2,4-triazol-4-yl)-piperidin-1-yl]-1-(thiophen-3-yl)propyl]cyclopentane-1-carboxamide] | 7.42 | 62.31 | 0.168 (≈ 0.379 µM) | >1190.41 | – | > 200 | – |
| Cc1nnc(C(C)C)n1C1CC2CCC(C1)N2CC[C@H](NC(=O)C1CCCC1)c1ccsc1 (stereo partly drawn) [Compound 26, N-[(1S)-3-[exo-3(3-isopropyl-5-methyl-4H-1,2,4-triazol-4-yl)-8-azabicyclo[3.2.1]octane-8-yl]-1-(thiophen-3-yl)propyl]cyclopentane-1-carboxamide] | 8.30 | 71.02 | 0.00558 (≈ 0.0119 µM) | >35842.29 | better than the positive control compounds | – | protein stability effect in words, versus positive control compound (CCR5 protein; conclusion from Table 2): comparable with the positive control compound; CC50 [2]: > 200 µg/mL; cytotoxicity in vitro and therapeutic index in words, versus positive control compound (HIV-1SF162 virus strain; TZM-bl cells infected with HIV-1SF162, conclusion from Table 3): better than positive control compound |
| Cc1sc([C@H](CCN2C3CCC2CC(n2c(C)nnc2C(C)C)C3)NC(=O)C2CCC(F)(F)CC2)c(C)c1C (stereo partly drawn) [Compound 103, 4,4-difluoro-N-[(1S)-3-[exo-3-(3-isopropyl-5-methyl-4H-1,2,4-triazol-4-yl)-8-azabicyclo[3.2.1]octane-8-yl]-1-(3,4,5-trimethylthiophen-2-yl)propyl]cyclohexane-1-carboxamide] | – | – | – | – | – | – | pIC50 (hERG): 5.46 |
| COS(C)(=O)=O [Methyl methanesulfonate, reference compound] | – | – | – | – | – | – | number of revertant colonies (Mean ± SD) [3]: 1231 ± 146.1 |
